Measured values: patent US5246932A, “Heterocyclic compounds” (Imperial Chemical Industries PLC, priority 1991, dated 1993)

Legend:
[1] = target: adenosine receptor known as A2; assay: Guinea-pig Aortic Constriction Test; assay type: biochemical; settings: antagonism of adenosine relaxation of phenylephrine-constricted guinea-pig aortic ring
Source text: (b) Guinea-pig Aortic Constriction Test
This test has been described by Collis et al. (British J. Pharmacology, 1989, 97, 1274-1278) and involves the assessment of the ability of a test compound to antagonise the attenuatory effect of adenosine on phenylephrine induced constriction of a guinea-pig aortic ring preparation, an effect mediated via the adenosine receptor known as A2.
The aortic ring preparation is obtained as follows:- Sections (3-5 mm) of guinea pig thoracic aorta (from Dunkin Hartley strain, 250-400 g males) are mounted in organ baths containing oxygenated Krebs solution (95% O2 : 5% CO2) at 37° C. [The nucleoside transport inhibitor, dipyridamole (10 μM) is present in the Krebs solution]. The isometric tension development is recorded and the tissue placed under a resting tension of 1 g and allowed to equilibrate for 1 hour. […] Adenosine is next added cumulatively (10^-7 M to 10^-3 M) and the evoked relaxation is measured. […]
Test compounds are assessed by plotting the percentage relaxation observed against the logarithm of the adenosine concentration, competitive adenosine antagonism producing a parallel shift in the standard adenosine concentration/relaxation (dose response) curve. […] The pA2 value, which is an estimate of the concentration of antagonist to give a dose ratio of 2, may also be calculated using a standard computation technique.

[2] = system: vasodilation response during twitch contraction of skeletal muscle; assay: Anaesthetised cat exercise hyperaemia test; assay type: in vivo; settings: 10 mg.kg^-1
Procedure: f) Anaesthetised cat exercise hyperaemia test
This test involves assessment of the effect of a test compound to antagonise the vasodilation response which occurs during twitch contraction of skeletal muscle. The vasodilation is mediated partly by the release of endogenous adenosine from the contracting skeletal muscle.
Cats (2.4-3.6 kg) are anaesthetised with sodium pentobarbitone (50 mg.kg^-1 ip). The following blood vessels are catheterized: left jugular vein (for infusion of anaesthetic, at approximately […] as a 6 mg.ml^-1 solution in isotonic saline), right external jugular vein (for administration of drugs and test compounds), right common carotid artery (for measurement of systemic arterial blood pressure and pulse rate) and right brachial artery (for withdrawal of blood).
Blood flow to the left hind limb is measured with an electromagnetic flow probe around the left external iliac artery. The whole of the left hind limb is made to contract at 3 Hz for 20 minutes duration by stimulating the sciatic and femoral nerves. Active tension produced by the extensor digitorum longus and peroneous longus muscles is measured isometrically with a force transducer. Exercise is repeated twice within the same animal, in either the absence or presence of the test compound. Test compounds are assessed for their ability to reduce the vasodilatation during skeletal muscle contraction.

A2 Adenosine receptor = target: T1, A2 Adenosine receptor (Rattus norvegicus, UniProt P30543); assay: A2 Adenosine receptor affinity test ([3H]-NECA displacement, PC12 membranes); assay type: binding; settings: rat PC12 cell membranes, 30° C., 90 minutes
T1 construct: membrane preparations derived from the rat phaeochromocytoma cell line PC 12; host or cells: PC 12 (rat phaeochromocytoma) membranes
Procedure: The separated cells are then suspended in hypotonic solution (distilled water), allowed to stand on ice for 30 minutes and are then carefully homogenized using a standard high-speed homogeniser with periodic ice-cooling to obtain a fine suspension. […] The mixture is then incubated at 37° C. After 20 minutes, the reaction is terminated by dilution with ice-cold buffer and transfer onto ice. The material obtained containing the cell membranes is recovered by centrifugation and washed by resuspension in buffer and recentrifugation. The pellet produced is then resuspended in ice-cold buffer using a hand-driven homogenizer. The resultant membrane suspension is frozen and stored under liquid nitrogen until required.
After incubation, the samples are rapidly filtered over glass-fibre mats and the filter mats are washed to remove non-receptor-bound radioligand. Receptor-bound radioligand entrapped on the filter mats is then determined by liquid scintillation counting. Filtration and washing are carried out using a conventional vacuum filtration cell harvester. The specific binding (defined as the difference between the total binding and the non-specific binding) in the presence of the particular test compound is determined and compared with the control value.

[3] = target: T2, adenosine receptor known as A1 (Cavia porcellus, UniProt P47745); assay: Guinea-pig Atrial Bradycardic Test; assay type: biochemical; settings: antagonism of 2-chloroadenosine bradycardia in beating guinea-pig atrial pair; read-out: pA2 (converted)
T2 construct: Atrial pairs are obtained from guinea-pigs (Dunkin Hartley strain); from tissue; host or cells: guinea-pig spontaneously beating atrial pairs (Dunkin Hartley)
T2 sequence (P47745 1-326): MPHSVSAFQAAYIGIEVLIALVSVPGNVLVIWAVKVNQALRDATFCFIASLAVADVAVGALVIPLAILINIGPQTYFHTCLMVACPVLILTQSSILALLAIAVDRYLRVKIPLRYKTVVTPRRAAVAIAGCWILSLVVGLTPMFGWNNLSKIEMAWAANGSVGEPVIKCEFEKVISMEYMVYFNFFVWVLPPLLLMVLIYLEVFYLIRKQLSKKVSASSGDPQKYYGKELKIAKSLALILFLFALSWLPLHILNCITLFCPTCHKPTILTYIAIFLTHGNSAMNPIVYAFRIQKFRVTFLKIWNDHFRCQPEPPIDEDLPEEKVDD
Procedure: (c) Guinea-pig Atrial Bradycardic Test
The atrial pair preparation may be obtained as follows: Atrial pairs are obtained from guinea-pigs (Dunkin Hartley strain, 250-400 g males) and mounted in organ baths containing oxygenated Krebs buffer solution (95% O2; 5% CO2) at 37° C. The spontaneously beating atria are then placed under a resting tension of 1 g and allowed to equilibrate for 50 minutes with continuous overflow. Overflow is then stopped and adenosine deaminase (1 Unit/ml) added to prevent the accumulation of endogenously produced adenosine. After equilibration for 15 minutes, a cumulative dose response curve to the adenosine mimetic, 2-chloroadenosine(10^-8 M to 10^-4 M) is administered to produce a maximal slowing of atrial rate. After washout during 30 minutes, adenosine deaminase is readministered to the bath which is allowed to equilibrate for 15 minutes. A 10^-5 M solution of the test compound in DMSO is then added to the bath which is left to incubate for 30 minutes. Any effect on the beating rate due to the test compound is noted before the dose response curve to 2-chloroadenosine is repeated. Compounds which are adenosine antagonists attenuate the 2-chloroadenosine response.
Test compounds are assessed by comparing dose response curves to 2-chloroadenosine alone with those obtained in the presence of the compound. […]

T1 sequence (P30543 whole entry): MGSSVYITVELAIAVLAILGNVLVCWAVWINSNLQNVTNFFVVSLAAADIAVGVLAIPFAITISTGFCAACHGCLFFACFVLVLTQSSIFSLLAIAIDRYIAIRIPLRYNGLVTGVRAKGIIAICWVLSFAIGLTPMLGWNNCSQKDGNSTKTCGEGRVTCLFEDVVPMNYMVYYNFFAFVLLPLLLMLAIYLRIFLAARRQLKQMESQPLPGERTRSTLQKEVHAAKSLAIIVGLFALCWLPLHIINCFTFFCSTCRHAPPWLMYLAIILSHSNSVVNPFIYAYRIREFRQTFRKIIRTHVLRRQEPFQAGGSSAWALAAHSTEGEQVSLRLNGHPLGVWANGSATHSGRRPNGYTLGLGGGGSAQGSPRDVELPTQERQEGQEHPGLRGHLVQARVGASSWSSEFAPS

Compound: Cn1c(=O)c2[nH]cnc2n(C)c1=O [1,3-dimethylxanthine]
- pA2 [1]: about 5
- inhibition of vasodilatation during skeletal muscle contraction [2]: significant inhibition

Compound: Nc1nc(NCCc2ccc(Oc3nc(N)n4nc(-c5ccco5)nc4n3)cc2)nc2nc(-c3ccco3)nn12 [Example 1, 7-amino-5-[4-(2-[7-amino-2-(2-furyl)-[1,2,4]triazolo[1,5-a][1,3,5]triazin-5-ylamino]ethyl)phenoxy]-2-(2-furyl)[1,2,4]triazolo[1,5-a][1,3,5]triazine]
- IC50 (A2 Adenosine receptor): ~0.000794 µM
- Kb [3]: 1 µM
